In patent US20250144067A1, “PERSONALIZED STARVATION THERAPY FOR CANCER” (Faeth Therapeutics, Inc., priority 2021, published 2025):
Counter-ions that a name gives are not always drawn.

What was measured:
[1] = system: NCI-H292 lung cancer cells; assay: FDA drug screening, complete media vs cholesterol-free media without statin (TABLE 1); assay type: cell-based, human
[2] = system: NCI-H292 lung cancer cells; assay: FDA drug screening, complete media vs cholesterol-free media with simvastatin (TABLE 2); assay type: cell-based, human; settings: for Cholesterol-free media + simvastatin (0.04 μM) / Complete Media: NCI-H292 cells
[3] = NCI-H292 cells, cholesterol-free media without statin
[4] = FDA drug library screen, cholesterol-free media with simvastatin 0.04 μM
[5] = FDA drug library screen, complete media
[6] = Complete minus Cholesterol-free, >0 enhanced anti-cancer activity, about 0 neutral, <0 antagonist
[7] = FDA library drug in cholesterol-free media with simvastatin 0.04 μM
[8] = FDA library drug in complete media
[9] = complete media vs cholesterol-free media + simvastatin (0.04 μM), >0 enhanced anti-cancer activity, about 0 neutral, <0 antagonist
[10] = Complete minus Cholesterol-free, greater than 0 enhanced anti-cancer activity, about 0 neutral, below 0 antagonist
[11] = NCI-H292 cells, FDA drug library screen, cholesterol-free media without statin
[12] = NCI-H292 cells, FDA drug library screen, complete media
[13] = cholesterol-free media with simvastatin 0.04 μM, FDA drug library screen (TABLE 2)
[14] = complete media, FDA drug library screen (TABLE 2)
[15] = complete media minus cholesterol-free media + simvastatin (0.04 μM), >0 enhanced anti-cancer activity, about 0 neutral, <0 antagonist
[16] = cholesterol-free media with simvastatin 0.04 μM, cell growth value in FDA drug screen
[17] = complete media, cell growth value in FDA drug screen
[18] = complete media minus cholesterol-free media + simvastatin, >0 enhanced anti-cancer activity, about 0 neutral, <0 antagonist
[19] = NCI-H292 cells, cholesterol-free media without statin, FDA drug library screen
[20] = NCI-H292 cells, complete media, FDA drug library screen
[21] = complete vs cholesterol-free media, >0 enhanced anti-cancer activity, about 0 neutral, <0 antagonist
[22] = complete vs cholesterol-free media, greater than 0 enhanced anti-cancer activity, about 0 neutral, below 0 antagonists

In the case of `Cc1ncc(OC[C@@]2(c3cccc(F)c3)C[C@H]2C(=O)Nc2ccc(F)cn2)c(C)n1` [Lemborexant], the Cholesterol-free [1, 3] is reported as 1.55, the Complete ([1]; NCI-H292 cells, complete media) is reported as 1.207 and the Difference ([1]; complete vs cholesterol-free media, […]) is reported as −0.34. For the same compound, the “Cholesterol-free media + simvastatin (0.04 μM)” value [2, 4] was 1.185, the “Complete Media” value [2, 5] was 1.038 and the Difference ([2]; complete media vs cholesterol-free media + simvastatin (0.04 μM), […]) was −0.15.
With `Nc1cccc2c1CN(C1CCC(=O)NC1=O)C2=O` (stereo not drawn) [Lenalidomide (hemihydrate)] the Difference [1, 6] was −0.19, the Cholesterol-free [1, 3] was 1.181 and the Complete ([1]; NCI-H292 cells, complete media) was 0.9861. For the same compound, the “Cholesterol-free media + simvastatin (0.04 μM)” value [2, 7] was 1.432, the “Complete Media” value [2, 8] was 1.135 and the Difference [2, 9] was −0.30.
For `Nc1cccc2c1CN(C1CCC(=O)NC1=O)C2=O` (stereo not drawn) [Lenalidomide], the Difference [1, 10] was −0.16, the Cholesterol-free [1, 11] was 1.032 and the Complete [1, 12] was 0.8739. For the same compound, the “Cholesterol-free media + simvastatin (0.04 μM)” value [2, 13] was 1.008, the “Complete Media” value [2, 14] was 0.9958 and the Difference [2, 15] was −0.01.
Compound `Cc1oc(=O)oc1COC(=O)[C@@H]1N2C(=O)[C@@H](NC(=O)[C@H](N)c3ccccc3)[C@H]2SC1(C)C` [Lenampicillin (hydrochloride)] has a Difference [1, 10] of −0.08, a Cholesterol-free [1, 11] of 1.101 and a Complete [1, 12] of 1.02. The “Cholesterol-free media + simvastatin (0.04 μM)” value [2, 4] was 1.05, the “Complete Media” value [2, 5] was 0.9118 and the Difference [2, 9] was −0.14.
Work on `COc1cc2nccc(Oc3ccc(NC(=O)NC4CC4)c(Cl)c3)c2cc1C(N)=O` [Lenvatinib] yielded a Difference [1, 10] of −0.11, a Cholesterol-free [1, 11] of 1.182 and a Complete [1, 12] of 1.077. The “Cholesterol-free media + simvastatin (0.04 μM)” value ([2]; drug in cholesterol-free media with simvastatin 0.04 μM) was 1.178, the “Complete Media” value ([2]; drug in complete media) was 1.01 and the Difference [2, 9] was −0.17.
Work on `COC(=O)C1=C(C)NC(C)=C(C(=O)OC(C)(C)CN(C)CCC(c2ccccc2)c2ccccc2)C1c1cccc([N+](=O)[O-])c1` (stereo not drawn) [Lercanidipine (hydrochloride)] yielded a Difference [1, 10] of −0.18, a Cholesterol-free [1, 11] of 0.8895 and a Complete [1, 12] of 0.7061. For the same compound, the “Cholesterol-free media + simvastatin (0.04 μM)” value [2, 16] was 0.8086, the “Complete Media” value [2, 17] was 0.8565 and the Difference [2, 18] was 0.05.
`O=C(O)CSc1nnc(Br)n1-c1ccc(C2CC2)c2ccccc12` [Lesinurad (sodium)] gave a Cholesterol-free [1, 19] of 0.8857, a Complete [1, 20] of 1.263 and a Difference [1, 21] of 0.38. For the same compound, the “Cholesterol-free media + simvastatin (0.04 μM)” value [2, 4] was 0.8519, the “Complete Media” value [2, 5] was 0.7365 and the Difference [2, 9] was −0.12.
`O=C(O)CSc1nnc(Br)n1-c1ccc(C2CC2)c2ccccc12` [Lesinurad] was tested, and the Difference [1, 10] was −0.12, the Cholesterol-free [1, 11] was 1.092 and the Complete [1, 12] was 0.9716. The “Cholesterol-free media + simvastatin (0.04 μM)” value [2, 16] was 0.9083, the “Complete Media” value [2, 17] was 0.9388 and the Difference [2, 18] was 0.03.
`COc1cccc(N2CCN(C3=Nc4c(F)cccc4[C@H](CC(=O)O)N3c3cc(C(F)(F)F)ccc3OC)CC2)c1` [Letermovir] gave a Cholesterol-free [1, 3] of 1.5, a Complete ([1]; NCI-H292 cells, complete media) of 1.08 and a Difference [1, 22] of −0.42. For the same compound, the “Cholesterol-free media + simvastatin (0.04 μM)” value [2, 13] was 1.527, the “Complete Media” value [2, 14] was 1.457 and the Difference [2, 15] was −0.07.
In the case of `N#Cc1ccc(C(c2ccc(C#N)cc2)n2cncn2)cc1` [Letrozole], the Cholesterol-free [1, 3] is reported as 1.334, the Complete ([1]; NCI-H292 cells, complete media) is reported as 1.012 and the Difference [1, 22] is reported as −0.32. The “Cholesterol-free media + simvastatin (0.04 μM)” value [2, 7] was 1.67, the “Complete Media” value [2, 8] was 1.21 and the Difference [2, 9] was −0.46.
For `c1ccc([C@H]2CN3CCSC3=N2)cc1` [Levamisole (hydrochloride)], the Cholesterol-free [1, 19] was 1.001, the Complete [1, 20] was 1.665 and the Difference [1, 21] was 0.66. The “Cholesterol-free media + simvastatin (0.04 μM)” value [2, 7] was 1.301, the “Complete Media” value [2, 8] was 0.9046 and the Difference [2, 9] was −0.40.
`CC[C@@H](C(N)=O)N1CCCC1=O` [Levetiracetam] was tested, and the Difference [1, 6] was −0.22, the Cholesterol-free [1, 3] was 1.098 and the Complete ([1]; NCI-H292 cells, complete media) was 0.8825. The “Cholesterol-free media + simvastatin (0.04 μM)” value [2, 4] was 1.002, the “Complete Media” value [2, 5] was 0.917 and the Difference [2, 9] was −0.09.
For `CC(C)NC[C@H](O)COc1ccc(CCOCC2CC2)cc1` [Levobetaxolol (hydrochloride)], the Difference ([1]; Complete minus Cholesterol-free, greater than 0 enhanced anti-cancer activity, about 0 neutral, below 0 antagonists) was −0.54, the Cholesterol-free ([1]; NCI-H292 cells in cholesterol-free media without statin) was 1.517 and the Complete ([1]; NCI-H292 cells in complete media) was 0.977. For the same compound, the “Cholesterol-free media + simvastatin (0.04 μM)” value [2, 13] was 1.004, the “Complete Media” value [2, 14] was 0.9581 and the Difference [2, 15] was −0.05.
In the case of `CC(C)(C)NC[C@H](O)COc1cccc2c1CCCC2=O` [Levobunolol (hydrochloride)], the Cholesterol-free [1, 19] is reported as 0.4904, the Complete [1, 20] is reported as 1.134 and the Difference [1, 21] is reported as 0.64. For the same compound, the “Cholesterol-free media + simvastatin (0.04 μM)” value [2, 13] was 0.9864, the “Complete Media” value [2, 14] was 0.921 and the Difference [2, 15] was −0.07.
